The target of assay [1] is T1, ALK5 (Homo sapiens, UniProt P36897).
T1 sequence (P36897 34-503): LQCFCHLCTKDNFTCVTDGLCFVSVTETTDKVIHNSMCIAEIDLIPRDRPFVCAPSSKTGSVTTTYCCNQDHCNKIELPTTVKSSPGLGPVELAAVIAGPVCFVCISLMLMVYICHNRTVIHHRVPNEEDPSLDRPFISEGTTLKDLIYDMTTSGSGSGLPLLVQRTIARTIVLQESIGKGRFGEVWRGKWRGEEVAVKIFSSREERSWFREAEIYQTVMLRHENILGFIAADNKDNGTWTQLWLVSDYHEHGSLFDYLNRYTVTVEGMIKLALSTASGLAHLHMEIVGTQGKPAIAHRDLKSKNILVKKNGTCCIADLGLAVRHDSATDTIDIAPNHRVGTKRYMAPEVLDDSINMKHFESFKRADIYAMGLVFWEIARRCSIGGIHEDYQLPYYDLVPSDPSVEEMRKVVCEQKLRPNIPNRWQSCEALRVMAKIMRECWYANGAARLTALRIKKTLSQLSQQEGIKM
The assay can be described thus: TR-FRET enzymatic ALK kinase assay, ALK5. In general terms: TR-FRET usually uses a lanthanide donor and a delayed reading to cut background.
Procedure: Six ALK kinase enzyme assays were developed for determination of compound activities on ALK1, ALK2, ALK3, ALK4, ALK5 and ALK6.
(§1) Briefly, the ALKs enzymatic assay was initiated by dispense 2.5 μl enzyme in 1× kinase reaction buffer. The assay plate was then added with compounds followed by incubation at room temperature for 10 minutes. Then 2.5 μl/well substrate was added.

Assay [2] has as its target ALK3 (Homo sapiens, UniProt P36894). Briefly: TR-FRET enzymatic ALK kinase assay, ALK3.
Procedure: as §1
In assay [3] the target is ALK1 (Homo sapiens, UniProt P37023). The assay can be described thus: TR-FRET enzymatic ALK kinase assay, ALK1.
Sequence of ALK1 (P37023 22-503): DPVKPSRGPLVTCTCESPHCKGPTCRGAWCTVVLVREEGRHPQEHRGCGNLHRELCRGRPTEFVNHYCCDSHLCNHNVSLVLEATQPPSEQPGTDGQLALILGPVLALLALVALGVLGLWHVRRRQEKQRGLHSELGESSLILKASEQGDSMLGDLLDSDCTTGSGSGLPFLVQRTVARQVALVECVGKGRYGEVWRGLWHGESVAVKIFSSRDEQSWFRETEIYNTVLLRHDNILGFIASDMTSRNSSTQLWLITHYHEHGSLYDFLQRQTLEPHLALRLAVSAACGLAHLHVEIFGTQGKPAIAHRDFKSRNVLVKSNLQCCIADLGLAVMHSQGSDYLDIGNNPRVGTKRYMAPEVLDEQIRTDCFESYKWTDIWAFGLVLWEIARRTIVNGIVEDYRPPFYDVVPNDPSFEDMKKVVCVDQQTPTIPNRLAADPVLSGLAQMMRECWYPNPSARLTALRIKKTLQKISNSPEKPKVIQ
Procedure: as §1
The target of assay [4] is T2, ALK2 (Homo sapiens, UniProt Q04771).
T2 sequence (Q04771 21-509): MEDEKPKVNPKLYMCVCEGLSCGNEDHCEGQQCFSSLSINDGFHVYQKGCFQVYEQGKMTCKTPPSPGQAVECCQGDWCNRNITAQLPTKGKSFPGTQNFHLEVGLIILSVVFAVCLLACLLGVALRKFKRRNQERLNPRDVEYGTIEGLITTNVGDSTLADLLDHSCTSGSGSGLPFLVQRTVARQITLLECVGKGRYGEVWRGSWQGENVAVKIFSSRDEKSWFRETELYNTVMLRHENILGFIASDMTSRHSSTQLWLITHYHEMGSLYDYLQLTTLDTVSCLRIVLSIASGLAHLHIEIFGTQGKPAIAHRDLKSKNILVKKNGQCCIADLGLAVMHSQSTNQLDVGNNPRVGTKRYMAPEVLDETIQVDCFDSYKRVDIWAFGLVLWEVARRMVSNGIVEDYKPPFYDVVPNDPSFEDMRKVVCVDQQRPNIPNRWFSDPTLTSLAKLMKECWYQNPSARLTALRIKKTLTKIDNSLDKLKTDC
The assay can be described thus: TR-FRET enzymatic ALK kinase assay, ALK2.
Procedure: as §1

In assay [5] the target is ALK6 (Homo sapiens, UniProt O00238). Briefly: TR-FRET enzymatic ALK kinase assay, ALK6.
Sequence of ALK6 (O00238 14-502): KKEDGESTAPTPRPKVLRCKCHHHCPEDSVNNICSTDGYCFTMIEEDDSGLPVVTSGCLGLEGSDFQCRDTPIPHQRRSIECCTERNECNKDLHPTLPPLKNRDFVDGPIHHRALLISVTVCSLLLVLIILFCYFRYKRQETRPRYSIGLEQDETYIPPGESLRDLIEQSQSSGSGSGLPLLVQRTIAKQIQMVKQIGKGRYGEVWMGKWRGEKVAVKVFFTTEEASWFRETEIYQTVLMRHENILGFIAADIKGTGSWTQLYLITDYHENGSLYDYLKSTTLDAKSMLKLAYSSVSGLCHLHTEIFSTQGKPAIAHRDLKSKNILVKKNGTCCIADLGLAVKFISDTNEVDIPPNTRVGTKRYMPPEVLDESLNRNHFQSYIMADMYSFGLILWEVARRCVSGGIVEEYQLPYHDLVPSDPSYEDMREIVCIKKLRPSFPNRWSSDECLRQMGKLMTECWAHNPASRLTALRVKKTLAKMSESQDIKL
Procedure: as §1
The target in assay [6] is T3, ALK4 (Homo sapiens, UniProt P36896).
T3 sequence (P36896 24-505): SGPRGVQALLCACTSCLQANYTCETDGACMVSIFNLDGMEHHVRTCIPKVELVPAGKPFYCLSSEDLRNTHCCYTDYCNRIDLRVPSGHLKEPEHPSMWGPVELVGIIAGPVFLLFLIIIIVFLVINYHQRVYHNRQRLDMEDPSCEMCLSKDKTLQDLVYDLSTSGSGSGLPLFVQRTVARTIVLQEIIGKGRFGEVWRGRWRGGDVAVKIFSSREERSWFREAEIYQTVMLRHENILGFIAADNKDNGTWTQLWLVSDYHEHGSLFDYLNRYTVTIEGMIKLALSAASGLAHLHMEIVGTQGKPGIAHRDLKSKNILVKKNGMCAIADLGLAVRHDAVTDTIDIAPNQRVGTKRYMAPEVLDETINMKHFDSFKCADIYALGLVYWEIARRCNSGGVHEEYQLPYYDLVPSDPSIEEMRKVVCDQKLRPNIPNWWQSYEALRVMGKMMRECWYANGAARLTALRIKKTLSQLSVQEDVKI
Briefly: TR-FRET enzymatic ALK kinase assay, ALK4.
Procedure: as §1

Each structure is given as a SMILES string.

Sequence of ALK3 (P36894 24-532): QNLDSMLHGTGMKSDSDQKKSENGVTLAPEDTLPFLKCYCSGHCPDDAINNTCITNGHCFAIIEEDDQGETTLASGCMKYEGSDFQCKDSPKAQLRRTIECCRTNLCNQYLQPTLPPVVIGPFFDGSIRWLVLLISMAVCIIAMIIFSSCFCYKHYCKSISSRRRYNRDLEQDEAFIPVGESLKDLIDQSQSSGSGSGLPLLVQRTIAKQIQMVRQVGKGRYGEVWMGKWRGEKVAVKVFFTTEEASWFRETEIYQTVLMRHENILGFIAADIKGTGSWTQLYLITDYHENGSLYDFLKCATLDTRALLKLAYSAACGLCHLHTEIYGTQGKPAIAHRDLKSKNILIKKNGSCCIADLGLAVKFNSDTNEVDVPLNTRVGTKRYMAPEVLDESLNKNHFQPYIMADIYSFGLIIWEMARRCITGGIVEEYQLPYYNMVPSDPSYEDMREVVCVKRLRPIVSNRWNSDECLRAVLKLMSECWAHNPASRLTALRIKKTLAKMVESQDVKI

Broadly, the IC50 is the concentration that inhibits the measured activity by half. A high value points to weaker potency in that assay. Take `CS(=O)(=O)c1cccc(-c2cnn3cc(-c4ccc(CCN5CCC(O)C5)cc4)cnc23)c1` (stereo not drawn) [Compound 132, 1-(4-(3-(3-(methylsulfonyl)phenyl)pyrazolo[1,5-a]pyrimidin-6-yl)phenethyl)pyrrolidin-3-ol]: the half-maximal inhibitory concentration (IC50) in assay [1] was > 10 µM; in assay [2], 6.4 µM; in assay [3], 0.63 µM; in assay [4] it was 0.13 µM; in assay [5] it was > 10 µM; in assay [6] it was > 10 µM.
On to `C[C@H](O)c1cccc(-c2cnn3cc(-c4ccc(OCCN5CCCCC5)cc4)cnc23)c1` [Compound 201, (S)-1-(3-(6-(4-(2-(piperidin-1-yl)ethoxy)phenyl)pyrazolo[1,5-a]pyrimidin-3-yl)phenyl)ethanol], for which the IC50 was > 10 µM in assay [1]; 1 µM in assay [2]; 1 µM in assay [3]; 0.043 µM in assay [4]; > 10 µM in assay [5]; > 10 µM in assay [6].
On to `CC(O)c1cccc(-c2cnn3cc(-c4ccc(CCN5CCC(O)C5)cc4)cnc23)c1` (stereo not drawn) [Compound 148, 1-(4-(3-(3-(1-hydroxyethyl)phenyl)pyrazolo[1,5-a]pyrimidin-6-yl)phenethyl)pyrrolidin-3-ol], for which the IC50 in assay [1] is > 10 µM; in assay [2], 6.4 µM; in assay [3] it was 0.79 µM; in assay [4], 0.15 µM; in assay [5] it was > 10 µM; in assay [6], > 10 µM.
As to `CC(N)c1ccc(-c2cnc3c(-c4cccc(C(C)O)c4)cnn3c2)cc1` (stereo not drawn) [Compound 188, 1-(3-(6-(4-(1-aminoethyl)phenyl)pyrazolo[1,5-a]pyrimidin-3-yl)phenyl)ethanol], the IC50 in assay [1] was > 10 µM; in assay [2], 4.7 µM; in assay [3], 0.97 µM; in assay [4], 0.073 µM; in assay [5], 8.1 µM; in assay [6], 4.1 µM.
Regarding `NC1(c2ccc(-c3cnc4c(-c5ccc(S(N)(=O)=O)c6ccccc56)cnn4c3)cc2)CC1` [Compound 192, 4-(6-(4-(1-aminocyclopropyl)phenyl)pyrazolo[1,5-a]pyrimidin-3-yl)naphthalene-1-sulfonamide], the IC50 in assay [1] is > 10 µM; in assay [2] it was 4.8 µM; in assay [3] it was 0.65 µM; in assay [4], 0.05 µM; in assay [5], > 10 µM; in assay [6], > 10 µM.
In the case of `CC(O)c1cccc(-c2cnn3cc(-c4ccc(C5CCCNC5)cc4)cnc23)c1` (stereo not drawn) [Compound 138, 1-(3-(6-(4-(piperidin-3-yl)phenyl)pyrazolo[1,5-a]pyrimidin-3-yl)phenyl)ethanol], the IC50 in assay [1] was > 10 µM; in assay [2], 4.9 µM; in assay [3] it was 0.58 µM; in assay [4], 0.11 µM; in assay [5], > 10 µM; in assay [6], > 10 µM.
In the case of `C[C@@H](O)c1cccc(-c2cnn3cc(-c4ccc(OCCN5CCCC5)cc4)cnc23)c1` [Compound 160, (R)-1-(3-(6-(4-(2-(pyrrolidin-1-yl)ethoxy)phenyl)pyrazolo[1,5-a]pyrimidin-3-yl)phenyl)ethanol], the IC50 in assay [1] was > 10 µM; in assay [2], 3.3 µM; in assay [3], 1.5 µM; in assay [4] it was 0.19 µM; in assay [5] it was > 10 µM; in assay [6], 8.9 µM.
With `C[S+](=O)([O-])c1cccc(-c2cnn3cc(-c4ccc(OC5(CN6C7CCC6CC7)CC5)cc4)cnc23)c1` [Compound 183, 6-(4-(1-(7-azabicyclo[2.2.1]heptan-7-ylmethyl)cyclopropoxy)phenyl)-3-(3-(methylsulfonyl)phenyl)pyrazolo[1,5-a]pyrimidine], the IC50 in assay [1] was > 10 µM; in assay [2], 1.9 µM; in assay [3], 0.26 µM; in assay [4], 0.02 µM; in assay [5], > 10 µM; in assay [6], > 10 µM.
Consider `C[S+](=O)([O-])c1cccc(-c2cnn3cc(-c4ccc(OC5(CN6CCOCC6)CC5)cc4)cnc23)c1` [Compound 179, 4-((1-(4-(3-(3-(methylsulfonyl)phenyl)pyrazolo[1,5-a]pyrimidin-6-yl)phenoxy)cyclopropyl)methyl)morpholine], for which the IC50 in assay [1] is > 10 µM; in assay [2] it was 0.75 µM; in assay [3] it was 0.38 µM; in assay [4], 0.031 µM; in assay [5], 3.6 µM; in assay [6] it was > 10 µM.
In the case of `CC(O)c1cccc(-c2cnn3cc(-c4ccc(C5CCNC5)cc4)cnc23)c1` (stereo not drawn) [Compound 130, 1-(3-(6-(4-(pyrrolidin-3-yl)phenyl)pyrazolo[1,5-a]pyrimidin-3-yl)phenyl)ethanol], the IC50 was > 10 µM in assay [1]; > 10 µM in assay [2]; 0.61 µM in assay [3]; 0.13 µM in assay [4]; > 10 µM in assay [5]; > 10 µM in assay [6].
As to `C[C@@H]1CNC[C@H](C)N1c1ccc(-c2cnc3c(-c4cccc5c(S(=O)(=O)N(C)C)cccc45)cnn3c2)cc1` [Compound 40, 5-(6-(4-((2R,6S)-2,6-dimethylpiperazin-1-yl)phenyl)pyrazolo[1,5-a]pyrimidin-3-yl)-N,N-dimethylnaphthalene-1-sulfonamide], the IC50 was > 10 µM in assay [1]; > 10 µM in assay [2]; > 10 µM in assay [3]; 3.2 µM in assay [4]; > 10 µM in assay [5]; > 10 µM in assay [6].
As to `CC(O)c1cccc(-c2cnn3cc(-c4ccc(CCN5CCOCC5)cc4)cnc23)c1` (stereo not drawn) [Compound 147, 1-(3-(6-(4-(2-morpholinoethyl)phenyl)pyrazolo[1,5-a]pyrimidin-3-yl)phenyl)ethanol], the IC50 is > 10 µM in assay [1]; > 10 µM in assay [2]; 0.47 µM in assay [3]; 0.17 µM in assay [4]; > 10 µM in assay [5]; > 10 µM in assay [6].
For the compound `CC(O)c1cccc(-c2cnn3cc(-c4ccc(CCN5CCC(O)CC5)cc4)cnc23)c1` (stereo not drawn) [Compound 151, 1-(4-(3-(3-(1-hydroxyethyl)phenyl)pyrazolo[1,5-a]pyrimidin-6-yl)phenethyl)piperidin-4-ol], the IC50 is > 10 µM in assay [1]; 4.3 µM in assay [2]; 0.82 µM in assay [3]; 0.11 µM in assay [4]; > 10 µM in assay [5]; > 10 µM in assay [6].
Take `C[C@@H]1CNC[C@H](C)N1c1ccc(-c2cnc3c(-c4ccc(C(=O)C(F)(F)F)c5ccccc45)cnn3c2)cc1` [Compound 30, 1-(4-(6-(4-((2R,6S)-2,6-dimethylpiperazin-1-yl)phenyl)pyrazolo[1,5-a]pyrimidin-3-yl)naphthalen-1-yl)-2,2,2-trifluoroethanone]: the half-inhibitory concentration (IC50) in assay [1] came out at 22.9 µM; in assay [2] it was 1.61 µM; in assay [3], 0.305 µM; in assay [4], 0.206 µM; in assay [5], 2.38 µM; in assay [6], 7.99 µM.
As for `CC(=O)c1ccc(-c2cnn3cc(-c4ccc(N5[C@H](C)CNC[C@@H]5C)cc4)cnc23)c2ccccc12` [Compound 27, 1-(4-(6-(4-((2R,6S)-2,6-dimethylpiperazin-1-yl)phenyl)pyrazolo[1,5-a]pyrimidin-3-yl)naphthalen-1-yl)ethanone], the IC50 in assay [1] was found to be 13.5 µM; in assay [2] it was 0.224 µM; in assay [3], 0.109 µM; in assay [4], 0.019 µM; in assay [5], 0.622 µM; in assay [6] it was 4.03 µM.

These data come from patent US10513521B2, “Compositions and methods for inhibiting BMP” (The Brigham and Women's Hospital, Inc., priority 2014, dated 2019).
